Several values for one entry are separate records, joined by “and”; a condition that tells them apart may be missing. Identical values can stand only once. Like-named read-outs stand apart in the source and are kept apart here. Numbered stars: 1 amine (or outer) side, 2 acyl side, 3 side chain; on linkers, the order of the positions; unused ones are H or OH. Bridge positions count the residues as written; N and C are the ends. Square brackets hold non-standard residues; d marks the D form. Peptide text beside a SMILES is read from it. * marks the point of attachment. Orn(4R-OH,5R-OH) = O=C([C@H](C[C@@H](O)[C@@H](O)N[*:3])N[*:1])[*:2]; hTyr(3S-OH,4S-OH) = N[C@H](C(=O)O)[C@H](O)[C@@H](O)c1ccc(O)cc1; Pro(3S-OH,4S-Me) = C[C@H]1CN[C@H](C(=O)O)[C@H]1O; X1 = O=C(c1cc(I)c(N[*:1])c(I)c1)[*:2]; X5 = O=C(c1cc(Cl)cc(N[*:1])c1Cl)[*:2]; X6 = O=C(C=Cc1ccc(N[*:1])cc1)[*:2]; Palmitoyl = CCCCCCCCCCCCCCCC(=O)*; Hyp = O=C(O)[C@@H]1C[C@@H](O)CN1; X2 = O=C(Cc1ccc(N[*:1])cc1)[*:2]; Myristoyl = CCCCCCCCCCCCCC(=O)*; X3 = O=C(c1cccnc1N[*:1])[*:2]; Lauroyl = CCCCCCCCCCCC(=O)*; 4Abz = Nc1ccc(C(=O)O)cc1
What was measured:
[1] = system: Candida albicans A-26; assay: Agar plate disc diffusion test, zone of inhibition; type: cell-based; details: 7 mm disc; for Size of Zone of Inhibition: 1 mg/ml suspension in methanol, 24-48 hours at 25-37° C., no regrowth mark
Experimental: (§1) ^(a) Compounds were tested as suspension in methanol.
(§2) were tested at a concentration of 1 mg/ml by a dipping 7mm disc into the
(§3) suspension and placing it on the agar surface. Incubation: 24-48 hours at

[2] = system: Trichophyton mentagrophytes; assay: Agar plate disc diffusion test, zone of inhibition; type: cell-based; details: 7 mm disc
Experimental: as §1, §2, §3

[3] = system: Candida albicans A-26; assay: Agar plate disc diffusion test, MIC per disc; type: cell-based; details: 0.01M sodium borate, pH 7.5, 24 hours at 30° C.
Experimental: (§4) In Table 5, activity is measured by the minimal inhibitory concentration (MIC) of the substance (μg/disc) required to inhibit growth of the test organism.
(§5) *Compounds were suspended in 0.01M sodium borate solution, pH 7.5.
(§6) compounds were tested at 20 μg/disc at top level and at twofold
(§7) dilutions until end points were reached.

[4] = system: Neurospora Crassa 846; assay: Agar plate disc diffusion test, zone of inhibition; type: cell-based; details: Neurospora crassa, 1 mg/ml, 7 mm disc, * measurable zone of inhibition with regrowth of organism around disc
Experimental: as §1, §2, §3

[5] = system: Saccharomyces pastorianus X-52; assay: Agar plate disc diffusion test, zone of inhibition; type: cell-based; details: Saccharomyces pastorianus, X52, 48 h, 1 mg/ml suspension in methanol, 7 mm disc, 24-48 hours at 25-37° C.
Experimental: as §1, §2, §3

[6] = system: Trychophyton mentagrophytes #6; assay: Agar plate disc diffusion test, MIC per disc; type: cell-based; details: 0.01M sodium borate, pH 7.5, 24 hours at 30° C.
Experimental: as §4, §5, §6, §7

[7] = system: Candida albicans A-26; assay: Therapeutic activity against Candida albicans A-26 infection in mice; type: in vivo; details: A26, sc
Experimental: The results of in vivo tests to evaluate the effectiveness of the compound of Examples 61-81, 86 and 88 against an infection caused by Candida albicans A-26 in mice are given in Table 7, where activity is measured by the ED50 value (the dose in mg/kg. required to cure 50% of the test animals). Where an ED50 value was not obtained, activity is indicated by the lowest dose at which a significant anti-fungal effect is observed. In this test, groups of male albino mice (specific pathogen free), weighing 18 to 20 grams, are infected intravenously with Candida albicans A-26. The animals are X-irradiated 24 hours prior to infection at about 50 roentgens per minute for 8 minutes (400 total dose) to reduce immune responses to the infecting organism. At 0, 4, and 24 hours post infection each group of mice is given graded doses subcutaneously of the test compound as a suspension in 33% polyethylene glycol-water. The day of death for each animal is recorded.
*Dosage Schedule: 40, 20, 15, and 10 mg/kg. Dosages given 0, 4, and 24
hours post injection as suspension of test compound in 30% PEGH2 O.
Number of mice receiving test compounds at each dosage level: 6 mice per
group. Number of mice in control (untreated) group: 10 mice per group.
**As measured by increase in survival time of treated animals versus
control, calculated by method of Reed V. Mueuch, American J. Hygiene, 493

[8] = Blood levels after oral administration in mice; details: for concentration at 4 h: mouse, po, 416 mg/kg
Experimental: (§8) In this test, mice are gavaged with a dose of 416 mg/kg of the test compound suspended in 33% PEG 400-water. At time intervals, blood samples are taken from the orbital sinus and are assayed for antibiotic activity as follows: A 7 mm. disc containing 20 μl of whole blood is placed on agar seeded with Aspergillus montevidensis A35137. After 40 hours incubation at 30° C. zones of inhibition from the blood samples are compared to a standard obtained from the test compound, and the amount of compound in the blood sample is calculated.

[9] = in vivo; details: mouse, po, 416 mg/kg
Experimental: as §8

[10] = mouse, in vivo, 416 mg/kg, 240 min
Experimental: as §8

[11] = 1 mg/ml, * measurable zone of inhibition with regrowth of organism around disc, read-out: Size of Zone of Inhibition (*)
[12] = CRASSA846, Neurospora Crassa 846, read-out: Size of Zone of Inhibition (*)
[13] = Saccharomyces pastorianus X-52, read-out: Size of Zone of Inhibition
[14] = read-out: Lowest Active Dose, subcutaneous at 0, 4 and 24 hours post infection, lowest dose with significant anti-fungal effect
[15] = subcutaneous at 0, 4 and 24 hours post infection, dose to cure 50% of test animals, by increase in survival time, read-out: ED50
[16] = subcutaneous at 0, 4 and 24 hours post infection, lowest dose with significant anti-fungal effect, read-out: Lowest Active Dose

CCCCCCCCCCCC(=O)Nc1cc(Cl)cc(C(=O)N[C@H]2C[C@@H](O)[C@@H](O)NC(=O)[C@@H]3[C@@H](O)[C@@H](C)CN3C(=O)[C@H]([C@@H](C)O)NC(=O)[C@H]([C@H](O)[C@@H](O)c3ccc(O)cc3)NC(=O)[C@@H]3C[C@@H](O)CN3C(=O)[C@H]([C@@H](C)O)NC2=O)c1Cl [Example 67] (Lauroyl-[X5][Orn(4R-OH,5R-OH)]T[Hyp][hTyr(3S-OH,4S-OH)]T[Pro(3S-OH,4S-Me)]; lactam 2-C)
Size of Zone of Inhibition [1]: 27 mm | zone of inhibition at 1000 µg/mL [2, 11]: 44 mm | MIC [3]: 0.625 μg/disc | zone of inhibition at 1000 µg/mL [4, 12]: 35 mm | zone of inhibition at 1000 µg/mL [5, 13]: 19 mm | MIC [6]: < 0.039 μg/disc | ED50 [7]: 14 mg/kg | minimal effective dose [7, 14]: 10 mg/kg | concentration at 4 h ([8]; blood): 530 ng/mL

CCCCCCCCCCCC(=O)Nc1c(I)cc(C(=O)N[C@H]2C[C@@H](O)[C@@H](O)NC(=O)[C@@H]3[C@@H](O)[C@@H](C)CN3C(=O)[C@H]([C@@H](C)O)NC(=O)[C@H]([C@H](O)[C@@H](O)c3ccc(O)cc3)NC(=O)[C@@H]3C[C@@H](O)CN3C(=O)[C@H]([C@@H](C)O)NC2=O)cc1I [Example 68] (Lauroyl-[X1][Orn(4R-OH,5R-OH)]T[Hyp][hTyr(3S-OH,4S-OH)]T[Pro(3S-OH,4S-Me)]; lactam 2-C)
concentration at 4 h [9]: 340 ng/mL | Size of Zone of Inhibition [1]: 25 mm | zone of inhibition at 1000 µg/mL ([2]; 48 h, 1 mg/ml suspension in methanol, 24-48 hours at 25-37° C., no regrowth mark, read-out: Size of Zone of Inhibition): 60 mm | MIC [3]: 1.25 μg/disc | zone of inhibition at 1000 µg/mL [4, 12]: 30 mm | zone of inhibition at 1000 µg/mL [5, 13]: 17 mm | MIC [6]: 0.078 μg/disc | ED50 [7, 15]: > 40 mg/kg | minimal effective dose [7, 16]: 40 mg/kg

CCCCCCCCCCCC(=O)Nc1ccc(CC(=O)N[C@H]2C[C@@H](O)[C@@H](O)NC(=O)[C@@H]3[C@@H](O)[C@@H](C)CN3C(=O)[C@H]([C@@H](C)O)NC(=O)[C@H]([C@H](O)[C@@H](O)c3ccc(O)cc3)NC(=O)[C@@H]3C[C@@H](O)CN3C(=O)[C@H]([C@@H](C)O)NC2=O)cc1 [Example 72] (Lauroyl-[X2][Orn(4R-OH,5R-OH)]T[Hyp][hTyr(3S-OH,4S-OH)]T[Pro(3S-OH,4S-Me)]; lactam 2-C)
concentration at 4 h [9]: 340 ng/mL | Size of Zone of Inhibition [1]: 19 mm | zone of inhibition at 1000 µg/mL [2, 11]: 55 mm | MIC [3]: 2.5 μg/disc | zone of inhibition at 1000 µg/mL [4, 12]: 30 mm | zone of inhibition at 1000 µg/mL [5, 13]: 20 mm | MIC [6]: 0.078 μg/disc | ED50 [7, 15]: > 40 mg/kg | minimal effective dose [7, 16]: 40 mg/kg

CCCCCCCCCCCC(=O)Nc1ccc(C=CC(=O)N[C@H]2C[C@@H](O)[C@@H](O)NC(=O)[C@@H]3[C@@H](O)[C@@H](C)CN3C(=O)[C@H]([C@@H](C)O)NC(=O)[C@H]([C@H](O)[C@@H](O)c3ccc(O)cc3)NC(=O)[C@@H]3C[C@@H](O)CN3C(=O)[C@H]([C@@H](C)O)NC2=O)cc1 [Example 73] (Lauroyl-[X6][Orn(4R-OH,5R-OH)]T[Hyp][hTyr(3S-OH,4S-OH)]T[Pro(3S-OH,4S-Me)]; lactam 2-C)
concentration at 4 h [9]: 1310 ng/mL | Size of Zone of Inhibition (*) ([1]; 1 mg/ml, * measurable zone of inhibition with regrowth of organism around disc): 60 mm | zone of inhibition at 1000 µg/mL [2, 11]: 24 mm | MIC [3]: 1.25 μg/disc | zone of inhibition at 1000 µg/mL [4, 12]: 29 mm | zone of inhibition at 1000 µg/mL [5, 13]: 17 mm | MIC [6]: < 0.039 μg/disc | ED50 [7, 15]: 24 mg/kg | minimal effective dose [7, 16]: 20 mg/kg

CCCCCCCCCCCC(=O)Nc1ccc(C(=O)NCC(=O)N[C@H]2C[C@@H](O)[C@@H](O)NC(=O)[C@@H]3[C@@H](O)[C@@H](C)CN3C(=O)[C@H]([C@@H](C)O)NC(=O)[C@H]([C@H](O)[C@@H](O)c3ccc(O)cc3)NC(=O)[C@@H]3C[C@@H](O)CN3C(=O)[C@H]([C@@H](C)O)NC2=O)cc1 [Example 74] ({Lauroyl-4Abz}-G[Orn(4R-OH,5R-OH)]T[Hyp][hTyr(3S-OH,4S-OH)]T[Pro(3S-OH,4S-Me)]; lactam 2-C)
Size of Zone of Inhibition [1]: 15 mm | MIC [3]: 10 μg/disc | zone of inhibition at 1000 µg/mL ([4]; CRASSA846, read-out: Size of Zone of Inhibition (*), Neurospora Crassa 846): 28 mm | zone of inhibition at 1000 µg/mL ([5]; read-out: Size of Zone of Inhibition, Saccharomyces pastorianus X-52): 13 mm | MIC [6]: 0.078 μg/disc | ED50 [7]: > 40 mg/kg | minimal effective dose [7, 14]: > 40 mg/kg | concentration at 4 h ([8]; in vivo): 640 ng/mL

CCCCCCCCCCCC(=O)Nc1ncccc1C(=O)N[C@H]1C[C@@H](O)[C@@H](O)NC(=O)[C@@H]2[C@@H](O)[C@@H](C)CN2C(=O)[C@H]([C@@H](C)O)NC(=O)[C@H]([C@H](O)[C@@H](O)c2ccc(O)cc2)NC(=O)[C@@H]2C[C@@H](O)CN2C(=O)[C@H]([C@@H](C)O)NC1=O [Example 75] (Lauroyl-[X3][Orn(4R-OH,5R-OH)]T[Hyp][hTyr(3S-OH,4S-OH)]T[Pro(3S-OH,4S-Me)]; lactam 2-C)
Size of Zone of Inhibition [1]: 24 mm | zone of inhibition at 1000 µg/mL [2, 11]: 54 mm | MIC [3]: 2.5 μg/disc | zone of inhibition at 1000 µg/mL [4, 12]: 30 mm | zone of inhibition at 1000 µg/mL [5, 13]: 14 mm | MIC [6]: 0.078 μg/disc | ED50 [7, 15]: > 40 mg/kg | minimal effective dose [7, 16]: > 40 mg/kg | Blood Levels [10]: 0 ng/mL

CC(=O)Nc1ccc(C(=O)N[C@H]2C[C@@H](O)[C@@H](O)NC(=O)[C@@H]3[C@@H](O)[C@@H](C)CN3C(=O)[C@H]([C@@H](C)O)NC(=O)[C@H]([C@H](O)[C@@H](O)c3ccc(O)cc3)NC(=O)[C@@H]3C[C@@H](O)CN3C(=O)[C@H]([C@@H](C)O)NC2=O)cc1 [Example 77] (Ac-[4Abz][Orn(4R-OH,5R-OH)]T[Hyp][hTyr(3S-OH,4S-OH)]T[Pro(3S-OH,4S-Me)]; lactam 2-C)
Size of Zone of Inhibition [1]: 24 mm | zone of inhibition at 1000 µg/mL [2, 11]: 51 mm | MIC [3]: > 20 μg/disc and 40 μg/disc | zone of inhibition at 1000 µg/mL [4, 12]: 24 mm | zone of inhibition at 1000 µg/mL [5, 13]: 17 mm | MIC [6]: 0.312 μg/disc | ED50 [7]: > 40 mg/kg | minimal effective dose [7, 14]: > 40 mg/kg | Blood Levels ([8]; mice, 416 mg/kg by gavage in 33% PEG 400-water, four hours after administration, bioassay vs. Aspergillus montevidensis A35137): 0 ng/mL

CCCCCCCCCCCCCC(=O)Nc1ccc(C(=O)N[C@H]2C[C@@H](O)[C@@H](O)NC(=O)[C@@H]3[C@@H](O)[C@@H](C)CN3C(=O)[C@H]([C@@H](C)O)NC(=O)[C@H]([C@H](O)[C@@H](O)c3ccc(O)cc3)NC(=O)[C@@H]3C[C@@H](O)CN3C(=O)[C@H]([C@@H](C)O)NC2=O)cc1 [Example 80] ({Myristoyl-4Abz}-[Orn(4R-OH,5R-OH)]T[Hyp][hTyr(3S-OH,4S-OH)]T[Pro(3S-OH,4S-Me)]; lactam 1-C)
Size of Zone of Inhibition [1]: 22 mm | MIC [3]: 1.25 μg/disc | zone of inhibition at 1000 µg/mL [5, 13]: 17 mm | MIC [6]: < 0.039 μg/disc | ED50 [7]: 11 mg/kg | minimal effective dose [7, 14]: 2.5 mg/kg | concentration at 4 h ([8]; blood): 6500 ng/mL

CCCCCCCCCCCCCCCC(=O)Nc1ccc(C(=O)N[C@H]2C[C@@H](O)[C@@H](O)NC(=O)[C@@H]3[C@@H](O)[C@@H](C)CN3C(=O)[C@H]([C@@H](C)O)NC(=O)[C@H]([C@H](O)[C@@H](O)c3ccc(O)cc3)NC(=O)[C@@H]3C[C@@H](O)CN3C(=O)[C@H]([C@@H](C)O)NC2=O)cc1 [Example 81] ({Palmitoyl-4Abz}-[Orn(4R-OH,5R-OH)]T[Hyp][hTyr(3S-OH,4S-OH)]T[Pro(3S-OH,4S-Me)]; lactam 1-C)
Size of Zone of Inhibition [1]: 25 mm | MIC [3]: 0.312 μg/disc | zone of inhibition at 1000 µg/mL [5, 13]: 24 mm | MIC [6]: < 0.039 μg/disc | ED50 [7]: 7 mg/kg | minimal effective dose [7, 14]: 5 mg/kg | concentration at 4 h ([8]; blood): 36000 ng/mL
